Tests used:
[1] = system: SF-295; details: SF-295, CNS cancer; five-dose 0.01–100 µM
[2] = system: UACC-257; details: UACC-257, Melanoma; five-dose 0.01–100 µM
[3] = system: HCT-116; assay: cells; details: Homo sapiens
[4] = system: HOP-62; assay: cells; details: Homo sapiens
[5] = system: A498; assay: cells; details: Homo sapiens
[6] = system: SNB-19; assay: cells; details: Homo sapiens
[7] = system: HSF (Normal human skin fibroblast) cells; assay: MTT cytotoxicity assay; assay type: cell-based; details: HSF normal fibroblasts, 48 h, mean ± SD from triplicates
Protocol: The results hinted that 6i elicited stronger cytotoxicity and higher selectivity for cancer than normal cells.
The MTT assay was carried out according to the procedure cited earlier. Briefly, in a 96-well plate, either cancer or normal cells were seeded (10^6 cells/cm^2; 100 µL/well) and incubated for 12 h at 37 °C and CO2 (5%), then serial dilutions of compound 6i were added and incubated for 48 h using DMSO control (0.5% V/V). MTT (3-(4,5-dimethylthiazoyl)-2,5-diphenyl-tetrazolium bromide; Cat. No. M-5655) 5 mg/mL was then added. After 4 h incubation, the formed MTT formazan crystals were solubilised by 10% Triton X-100 plus 0.1 N HCl in anhydrous isopropanol. The absorbance was read using a Bioline plate reader at λ570–630 nm[25–29]. The selectivity of 6i towards HSF cells was also determined as follows[30]^,[31]: SI=IC50HSF cells/IC50of cancer cells

[8] = system: OVCAR-8; assay: cells; details: Homo sapiens
[9] = system: HT29; details: HT29, Colon cancer; five-dose 0.01–100 µM
[10] = system: A498; details: A498, Renal cancer; five-dose 0.01–100 µM
[11] = system: HOP-92; assay: cells; details: Homo sapiens
[12] = system: MCF-7 cells; assay: Cell cycle analysis (PI, flow cytometry); assay type: cell-based, human; details: MCF-7, 10 µM, 48 h; DMSO control 24.95%
Protocol: Figure 5. Flow cytometric analyses: cell cycle distribution analysis using PI staining method in which MCF-7 cells were treated by 6i (10 µM) and DMSO (negative control; NC) for 48 h; (A) 6i, (B) DMSO, (C) cells percentage in different phases (G0-G1, S, G2/M); apoptotic induction using annexin-V-FITC/PI staining method in which cancer cells were treated by 6i (10 µM) and DMSO (negative control; NC) for 24 h; (D) 6i, (E) DMSO, (F) histogram for induction of apoptosis.
The cell cycle assay was carried out according to the previously reported[36]^,[37]. Briefly, in a six-well plate, 2 ml of MCF-7 cells were seeded per well and incubated overnight at 37 °C and CO2 (5%). After 12 h incubation with serum-free medium, they were treated with 10 μM of 6i, incubated for 48 h, then washed twice with 1× PBS, trypsinised and centrifuged for 5 min (500 xg) at 4 °C. And then the cell pellet, in ice-cold 1× PBS, was fixed with absolute ethanol at −20 °C for 2 h, washed with 1× PBS ice-cold solution and finally stained with propidium iodide (PI)/RNase (Abcam, ab139418) for 0.5 h at 25 °C in the dark. flow cytometry determined the DNA content in cell phases using BD FACS Calibur[36]^,[37].

[13] = system: SNB-75; assay: cells; details: Homo sapiens
[14] = system: U251; details: U251, CNS cancer; five-dose 0.01–100 µM
[15] = system: SF-268; assay: cells; details: Homo sapiens
[16] = system: RPMI-8226; details: RPMI-8226, Leukaemia; five-dose 0.01–100 µM
[17] = system: NCI-H460; assay: cells; details: Homo sapiens
[18] = system: CAKI-1; assay: cells; details: Homo sapiens
[19] = system: KM12; assay: cells; details: Homo sapiens
[20] = system: IGROV1; details: IGROV1, Ovarian cancer; five-dose 0.01–100 µM

`CCOC(=O)CC[C@H](NC(=O)c1ccc(NC(=O)Cn2cnc3c(c(C)nn3-c3ccc(Br)cc3)c2=O)cc1)C(=O)OCC` [Compound 6i] showed a TGI [1] of 31.9 µM, a TGI [2] of over 100 µM and a GI50 ([3]; HCT-116) of 9.85 µM. The CC50 ([3]; HCT-116, read-out: LC50) was over 100 µM, the GI50 ([4]; HOP-62) was 5.11 µM and the CC50 ([4]; HOP-62, read-out: LC50) was 57.5 µM. It also gave a GI50 ([5]; A498) of 24.9 µM, a CC50 ([5]; A498, read-out: LC50) of 93 µM and a GI50 ([6]; SNB-19) of 12.1 µM. It also gave a CC50 ([6]; SNB-19, read-out: LC50) of 61.3 µM, an IC50 [7] of 48.5 ± 2.43 µM and a GI50 ([8]; OVCAR-8) of 8.17 µM. For the same molecule, the CC50 ([8]; OVCAR-8, read-out: LC50) was over 100 µM, the TGI [9] was 71.7 µM and the TGI [10] was 48.1 µM. For the same molecule, the GI50 ([11]; HOP-92) was 6.01 µM, the CC50 ([11]; HOP-92, read-out: LC50) was 66.2 µM and the “percentage of S-phase cells” value [12] was 36.29%. The GI50 ([13]; SNB-75) was 14.9 µM, the CC50 ([13]; SNB-75, read-out: LC50) was over 100 µM and the TGI [14] was over 100 µM. It also gave a GI50 ([15]; SF-268) of 7.01 µM, a CC50 ([15]; SF-268, read-out: LC50) of over 100 µM and a TGI [16] of over 100 µM. It also gave a GI50 ([17]; NCI-H460) of 13.7 µM, a CC50 ([17]; NCI-H460, read-out: LC50) of 86.9 µM and a GI50 ([18]; CAKI-1) of 10.4 µM. The CC50 ([18]; CAKI-1, read-out: LC50) was 47 µM, the GI50 ([19]; KM12) was 16.1 µM and the CC50 ([19]; KM12, read-out: LC50) was over 100 µM. It also gave a TGI [20] of 74.2 µM.
